Test results reported in patent US20260364184A1, “COMPOUND BASED ON OXOISOINDOLINYL-SUBSTITUTED TETRAHYDROPYRIMIDINE-DIONE AND USE THEREOF” (GLUETACS THERAPEUTICS (SHANGHAI) CO., LTD., priority 2023, published 2026).

Key:
[1] = test system: Human non-small cell lung cancer cell line NCI-H1975; experiment: Inhibition of H1975 cell proliferation (CellTiter luminescent viability); type: cell-based; conditions: Table ID1, EGFR inhibitor-based; H1975, 96 hours; read-out: Inhibitory activity (IC50, nM) on tumor cell proliferation, H1975
Description: The tumor cells used herein were cultured in a cell culture medium listed in table 3 at 37 °C in an incubator with 5% CO2. Prior to experimentation, all cell lines used were correctly identified by STR profiling, and tested negative for mycoplasma contamination using a mycoplasma detection kit through routine screenings.
The IC50 values of the compounds of the present disclosure (including the compounds in Table 1, Table 2, and Examples 1-468) were determined using the CellTiter-Meiluncell Luminescent Cell Viability Assay Kit from Dalian Meilun Biotech Co., Ltd. The detailed procedure is as follows: Tumor cells were seeded in 96-well cell culture plates at the densities specified in Table 4. On the following day, the test compounds of the present disclosure were subjected to serial dilution. The dilution can be performed according to one of the following two methods: • (1) The first dilution method: The test compounds of the present disclosure (including the compounds in Table 1, Table 2, and Examples 1-468) were subjected to 5-fold serial dilutions starting from a highest concentration of 2000 μM, resulting in a total of 9 concentrations from high to low (2000, 400, 80, 16, 3.2, 0.64, 0.128, 0.0256, 0.00512 μM). Subsequently, 0.5 μL of the test compound dilution was transferred into the 96-well plate containing the cells, with each well containing 100 μL of cell culture medium. […] Into the 96-well plate, the diluted test compounds and corresponding detection reagents were added, resulting in final test compound concentrations of 500 nM and 10 nM, respectively. The experimental procedure is described below using the diluted 2 μM test compound as an example.
0.5 μL of the aforementioned diluted compound of the present disclosure (including the compounds in Table 1, Table 2, and Examples 1-468) was added to the seeded cells in 100 μL of medium, yielding a final test compound concentration of 10 nM. After the cells were treated with the compounds of the present disclosure for a specified period, the cell viability assay reagent was added to the culture medium according to the kit's instructions to determine cell viability. […] All controls were treated using the same procedure as the compounds of the present disclosure. The growth inhibition curves for the compounds of the present disclosure were plotted using Prism GraphPad software, and the IC50 values were calculated therefrom.

EGFR = molecular target: T1, EGFR (Homo sapiens, UniProt P00533); experiment: Western blot degradation of EGFR; type: cell-based; conditions: H1975 Cell; 24 hours
T1 construct: L858R/T790M in cis, heterozygous with wild type), Western blot
How it was run: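 Cells treated with compound, lysed, and target protein detected by Western blot (SDS-PAGE, nitrocellulose transfer). DC50 taken as the concentration giving band grayscale half that of DMSO control, estimated by concentration-response fitting; remaining protein (%) from target band normalised to internal control band; degradation (%) = 1 − remaining.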

IKZF3 = molecular target: T2, IKZF3 (Homo sapiens, UniProt Q96SW2+Q9UKT9); experiment: Western blot degradation of IKZF3; type: cell-based; conditions: hPBMC Cell; 24 hours
T2 construct: expression of target proteins in cells; endogenous in cells
Description: (§1) Conventional Western blot assay was performed to evaluate the effects of the compounds of the present disclosure on the expression of target proteins in cells.
(§2) (1) Cell Seeding and Protein Harvesting: The selected cells were processed according to the cell seeding procedure and protein harvesting procedure in Table II-2.
(§3) (2) To the collected supernatant, 5×SDS sample loading buffer was added, followed by denaturation at 95 °C for 5 minutes. The denatured samples were then separated by SDS-PAGE electrophoresis on a polyacrylamide gel. Proteins were transferred to a nitrocellulose membrane (0.45 μm NC membrane), blocked with blocking buffer at room temperature for 1 hour, and subjected to antibody incubation and development procedures according to the antibody manufacturer's instructions (Cell Signaling Technology).
(§4) Half-Maximal Degradation Concentration value (the drug concentration required for degrading proteins by 50%, abbreviated as DC50) reads method: comparing the grayscale values of Western blot bands from drug-treated samples with those from blank DMSO-treated controls, and identifying the drug concentration range at which the grayscale value is half that of the DMSO-treated control bands.
(§5) DC50 values can be calculated using ImageJ software to measure grayscale values of Western blot bands from drug-treated samples. The concentration-response curve is fitted to estimate the drug concentration corresponding to half the grayscale value.
(§6) Target protein remaining (%) refers to the percentage of target protein remaining in cells after treatment with protein degrader compounds.
(§7) Calculation method for target protein remaining (%): Use ImageJ software to measure grayscale values of Western blot bands from drug (protein degrader)-treated samples. The grayscale value of drug-treated bands is divided by that of internal control protein bands, and the resulting quotient is normalized to obtain the relative percentage of remaining target protein after protein degrader treatment.
(§8) Target protein degradation rate (%)=1−target protein remaining (%).

GSPT1 = molecular target: T3, GSPT1 (Homo sapiens, UniProt P15170+Q96SW2); experiment: Western blot degradation of GSPT1; type: cell-based; conditions: hPBMC Cell; 24 hours
T3 construct: expression of target proteins in cells; endogenous in cells
Description: as §1, §2, §3, §4, §5, §6, §7, §8

CK1α = molecular target: T4, CK1α (Homo sapiens, UniProt P48729+Q96SW2); experiment: Western blot degradation of CK1α; type: cell-based; conditions: hPBMC Cell; 24 hours
T4 construct: expression of target proteins in cells; endogenous in cells
Description: as §1, §2, §3, §4, §5, §6, §7, §8

WEE1 = molecular target: T5, WEE1 (Homo sapiens, UniProt P30291+Q96SW2); experiment: Western blot degradation of WEE1; type: cell-based; conditions: hPBMC Cell; 24 hours
T5 construct: expression of target proteins in cells; endogenous in cells
Description: as §1, §2, §3, §4, §5, §6, §7, §8

IKZF2 = molecular target: T6, IKZF2 (Homo sapiens, UniProt Q96SW2+Q9UKS7); experiment: Western blot degradation of IKZF2; type: cell-based; conditions: hPBMC Cell; 24 hours
T6 construct: expression of target proteins in cells; endogenous in cells
Description: as §1, §2, §3, §4, §5, §6, §7, §8

IKZF1 = molecular target: T7, IKZF1 (Homo sapiens, UniProt Q13422+Q96SW2); experiment: Western blot degradation of IKZF1; type: cell-based; conditions: hPBMC Cell; 24 hours
T7 construct: expression of target proteins in cells; endogenous in cells
Description: as §1, §2, §3, §4, §5, §6, §7, §8

[2] = molecular target: T8, human Cereblon WT GST-tagged protein (CRBN) (Homo sapiens, UniProt Q96SW2); experiment: CRBN binding by HTRF (Cereblon binding kit)
T8 construct: purchased CISBIO 64BDCRBNPEH
How it was run: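 GST-tagged human Cereblon WT was incubated 3 h at room temperature with compound, thalidomide-Re tracer and Eu anti-GST antibody. Final compound concentrations were 10 to 0.00064 µM (7 points) or 2 and 0.5 µM. Inhibition rate was calculated from HTRF 665/620 nm ratios versus solvent and blank controls.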

T8 sequence (Q96SW2 whole entry): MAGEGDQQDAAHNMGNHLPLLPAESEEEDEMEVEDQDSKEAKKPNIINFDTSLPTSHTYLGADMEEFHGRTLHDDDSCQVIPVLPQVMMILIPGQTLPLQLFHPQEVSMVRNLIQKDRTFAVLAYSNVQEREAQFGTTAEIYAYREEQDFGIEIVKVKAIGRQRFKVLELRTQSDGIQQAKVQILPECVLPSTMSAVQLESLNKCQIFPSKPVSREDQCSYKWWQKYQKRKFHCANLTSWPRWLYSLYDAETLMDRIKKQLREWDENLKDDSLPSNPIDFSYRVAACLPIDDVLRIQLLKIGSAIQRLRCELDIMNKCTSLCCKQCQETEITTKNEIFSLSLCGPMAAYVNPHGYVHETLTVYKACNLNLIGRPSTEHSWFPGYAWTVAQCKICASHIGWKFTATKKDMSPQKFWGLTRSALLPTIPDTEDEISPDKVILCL
T1 sequence (P00533 25-1210): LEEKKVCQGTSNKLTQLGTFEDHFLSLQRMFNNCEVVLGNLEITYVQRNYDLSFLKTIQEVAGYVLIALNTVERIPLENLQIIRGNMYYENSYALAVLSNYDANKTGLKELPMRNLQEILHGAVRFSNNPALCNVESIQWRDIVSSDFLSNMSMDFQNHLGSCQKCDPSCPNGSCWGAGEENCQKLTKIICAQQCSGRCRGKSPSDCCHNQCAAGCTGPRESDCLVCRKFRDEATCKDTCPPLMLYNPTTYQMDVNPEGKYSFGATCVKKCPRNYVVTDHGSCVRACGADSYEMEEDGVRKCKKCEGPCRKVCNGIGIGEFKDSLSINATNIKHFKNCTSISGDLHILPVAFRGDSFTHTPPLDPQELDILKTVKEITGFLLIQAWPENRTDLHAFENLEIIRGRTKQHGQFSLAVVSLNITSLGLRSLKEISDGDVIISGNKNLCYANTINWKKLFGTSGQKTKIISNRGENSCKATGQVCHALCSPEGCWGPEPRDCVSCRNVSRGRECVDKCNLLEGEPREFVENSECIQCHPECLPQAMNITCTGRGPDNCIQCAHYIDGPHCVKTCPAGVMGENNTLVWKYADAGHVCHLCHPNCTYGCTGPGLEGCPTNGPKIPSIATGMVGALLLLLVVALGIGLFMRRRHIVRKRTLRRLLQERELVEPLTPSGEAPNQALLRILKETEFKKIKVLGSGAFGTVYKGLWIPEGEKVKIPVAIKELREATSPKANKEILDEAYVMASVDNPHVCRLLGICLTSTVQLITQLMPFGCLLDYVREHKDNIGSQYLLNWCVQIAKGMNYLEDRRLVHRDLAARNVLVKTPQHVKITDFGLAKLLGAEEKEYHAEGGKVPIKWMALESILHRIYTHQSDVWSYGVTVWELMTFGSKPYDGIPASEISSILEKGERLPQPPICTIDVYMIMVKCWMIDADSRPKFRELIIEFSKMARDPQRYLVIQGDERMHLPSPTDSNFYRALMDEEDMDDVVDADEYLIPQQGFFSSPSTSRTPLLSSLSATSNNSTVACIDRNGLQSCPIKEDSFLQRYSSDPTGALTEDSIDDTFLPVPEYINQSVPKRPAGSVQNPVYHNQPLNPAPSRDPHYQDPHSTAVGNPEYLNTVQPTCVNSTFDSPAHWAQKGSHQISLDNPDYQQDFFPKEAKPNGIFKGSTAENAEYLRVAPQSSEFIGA
T1 sequence (Q96SW2 whole entry partner): as the sequence (Q96SW2 whole entry) above
T3 sequence (P15170 whole entry): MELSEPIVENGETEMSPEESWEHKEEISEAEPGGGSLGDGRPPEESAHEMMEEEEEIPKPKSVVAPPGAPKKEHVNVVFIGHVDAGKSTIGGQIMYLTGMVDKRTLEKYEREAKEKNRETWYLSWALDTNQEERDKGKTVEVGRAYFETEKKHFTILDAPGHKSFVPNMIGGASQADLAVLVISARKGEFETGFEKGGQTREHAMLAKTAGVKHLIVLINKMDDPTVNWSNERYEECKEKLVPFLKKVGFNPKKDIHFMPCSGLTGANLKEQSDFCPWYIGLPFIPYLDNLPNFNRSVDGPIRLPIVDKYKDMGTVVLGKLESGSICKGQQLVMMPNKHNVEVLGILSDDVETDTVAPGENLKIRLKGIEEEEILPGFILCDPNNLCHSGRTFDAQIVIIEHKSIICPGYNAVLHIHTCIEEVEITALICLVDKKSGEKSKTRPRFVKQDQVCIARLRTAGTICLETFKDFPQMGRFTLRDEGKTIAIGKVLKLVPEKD
T3 sequence (Q96SW2 whole entry): as the sequence (Q96SW2 whole entry) above
T3 sequence (Q16531 whole entry partner): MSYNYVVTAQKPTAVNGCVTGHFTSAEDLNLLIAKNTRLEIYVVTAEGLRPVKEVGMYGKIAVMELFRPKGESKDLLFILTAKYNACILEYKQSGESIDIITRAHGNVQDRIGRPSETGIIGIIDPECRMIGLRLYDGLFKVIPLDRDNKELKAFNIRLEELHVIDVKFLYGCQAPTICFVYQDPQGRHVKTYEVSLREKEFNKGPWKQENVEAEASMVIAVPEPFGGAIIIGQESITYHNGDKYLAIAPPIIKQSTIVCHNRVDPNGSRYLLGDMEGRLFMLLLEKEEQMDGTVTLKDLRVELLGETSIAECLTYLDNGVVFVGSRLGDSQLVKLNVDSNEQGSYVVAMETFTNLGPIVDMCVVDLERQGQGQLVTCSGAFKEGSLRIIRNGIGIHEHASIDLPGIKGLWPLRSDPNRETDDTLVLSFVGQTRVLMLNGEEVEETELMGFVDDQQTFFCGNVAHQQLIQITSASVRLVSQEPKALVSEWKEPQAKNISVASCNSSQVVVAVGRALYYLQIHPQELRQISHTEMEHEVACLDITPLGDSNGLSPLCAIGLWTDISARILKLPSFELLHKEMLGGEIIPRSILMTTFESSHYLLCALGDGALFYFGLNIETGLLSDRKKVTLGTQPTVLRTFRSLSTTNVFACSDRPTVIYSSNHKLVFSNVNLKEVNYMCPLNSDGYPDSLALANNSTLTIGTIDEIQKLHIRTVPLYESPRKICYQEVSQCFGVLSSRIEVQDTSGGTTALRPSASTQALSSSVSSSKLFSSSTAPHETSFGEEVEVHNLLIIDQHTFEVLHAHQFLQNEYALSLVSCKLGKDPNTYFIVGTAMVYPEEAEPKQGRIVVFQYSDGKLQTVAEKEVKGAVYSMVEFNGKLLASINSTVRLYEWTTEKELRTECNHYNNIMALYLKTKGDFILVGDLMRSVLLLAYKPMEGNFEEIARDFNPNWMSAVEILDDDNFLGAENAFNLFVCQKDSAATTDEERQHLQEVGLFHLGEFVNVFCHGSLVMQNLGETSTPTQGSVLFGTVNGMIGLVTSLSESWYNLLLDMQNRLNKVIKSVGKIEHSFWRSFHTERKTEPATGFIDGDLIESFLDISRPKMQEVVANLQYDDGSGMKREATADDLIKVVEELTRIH
T4 sequence (P48729 whole entry): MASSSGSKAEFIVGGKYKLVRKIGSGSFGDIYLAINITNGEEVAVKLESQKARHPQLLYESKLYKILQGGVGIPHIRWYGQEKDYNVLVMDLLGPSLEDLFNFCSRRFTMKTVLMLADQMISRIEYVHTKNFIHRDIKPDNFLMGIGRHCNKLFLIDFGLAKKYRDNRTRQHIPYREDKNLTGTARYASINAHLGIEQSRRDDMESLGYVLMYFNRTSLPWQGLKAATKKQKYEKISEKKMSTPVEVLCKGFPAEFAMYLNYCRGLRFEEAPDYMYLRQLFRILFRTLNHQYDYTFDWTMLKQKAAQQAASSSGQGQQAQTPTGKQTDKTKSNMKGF
T4 sequence (Q96SW2 whole entry): as the sequence (Q96SW2 whole entry) above
T4 sequence (Q16531 whole entry partner): as the sequence (Q16531 whole entry partner) above
T7 sequence (Q13422 whole entry): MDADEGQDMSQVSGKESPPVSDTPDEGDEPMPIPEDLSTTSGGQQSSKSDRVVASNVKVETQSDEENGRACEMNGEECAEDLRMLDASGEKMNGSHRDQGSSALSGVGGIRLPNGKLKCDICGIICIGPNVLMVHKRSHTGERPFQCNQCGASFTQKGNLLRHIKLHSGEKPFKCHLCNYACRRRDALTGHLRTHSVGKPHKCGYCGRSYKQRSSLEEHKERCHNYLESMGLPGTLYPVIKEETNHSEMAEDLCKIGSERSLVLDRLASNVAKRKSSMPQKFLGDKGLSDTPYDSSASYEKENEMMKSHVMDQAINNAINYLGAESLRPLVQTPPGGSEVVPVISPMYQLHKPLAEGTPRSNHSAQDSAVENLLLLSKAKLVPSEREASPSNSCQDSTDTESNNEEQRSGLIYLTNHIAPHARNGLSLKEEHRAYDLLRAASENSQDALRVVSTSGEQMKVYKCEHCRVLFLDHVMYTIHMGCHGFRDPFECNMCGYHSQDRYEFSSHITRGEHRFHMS
T7 sequence (Q96SW2 whole entry): as the sequence (Q96SW2 whole entry) above
T7 sequence (Q16531 whole entry partner): as the sequence (Q16531 whole entry partner) above
T6 sequence (Q9UKS7 whole entry): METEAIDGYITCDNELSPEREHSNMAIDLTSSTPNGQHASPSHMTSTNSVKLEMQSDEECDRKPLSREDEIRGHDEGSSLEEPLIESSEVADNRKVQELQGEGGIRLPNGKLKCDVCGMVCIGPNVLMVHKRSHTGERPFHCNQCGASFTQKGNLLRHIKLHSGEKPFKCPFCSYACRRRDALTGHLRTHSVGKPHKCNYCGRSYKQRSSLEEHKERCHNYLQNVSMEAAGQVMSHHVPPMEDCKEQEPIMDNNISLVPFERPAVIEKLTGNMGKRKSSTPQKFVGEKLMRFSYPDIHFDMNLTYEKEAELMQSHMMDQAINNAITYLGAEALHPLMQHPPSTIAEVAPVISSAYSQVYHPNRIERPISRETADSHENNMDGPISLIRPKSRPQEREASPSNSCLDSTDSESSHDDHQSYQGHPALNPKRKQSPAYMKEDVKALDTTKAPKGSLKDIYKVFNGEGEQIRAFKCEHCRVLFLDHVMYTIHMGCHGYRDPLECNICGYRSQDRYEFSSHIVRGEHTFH
T6 sequence (Q96SW2 whole entry): as the sequence (Q96SW2 whole entry) above
T6 sequence (Q16531 whole entry partner): as the sequence (Q16531 whole entry partner) above

Row | Structure (SMILES) | IC50 [1] | Degradation of substrate protein EGFR (substrate protein remaining %) (EGFR) | Degradation of substrate protein IKZF3 (substrate protein remaining %) (IKZF3) | Degradation of substrate protein GSPT1 (substrate protein remaining %) (GSPT1) | Degradation of substrate protein CK1α (substrate protein remaining %) (CK1α) | Degradation of substrate protein WEE1 (substrate protein remaining %) (WEE1) | Degradation of substrate protein IKZF2 (substrate protein remaining %) (IKZF2) | Degradation of substrate protein IKZF1 (substrate protein remaining %) (IKZF1) | Inhibition Rate at 0.5 μM (%) [2] | Inhibition Rate at 2 μM (%) [2]
1 | O=C1CCN(N2C(=O)c3ccc(N4CCC(CN5CCN(c6ccc(-c7cc(F)c8c(c7)C(=O)N(C(C(=O)Nc7nccs7)c7ncn9c7CCC9)C8)cc6)CC5)CC4)cc3C2=O)C(=O)N1 (stereo not shown) [GT-06161, 2-(6,7-dihydro-5H-pyrrolo[1,2-c]imidazol-1-yl)-2-(6-(4-(4-((1-(2-(2,4-dioxotetrahydropyrimidin-1(2H)-yl)-1,3-dioxoisoindolin-5-yl)piperidin-4-yl)methyl)piperazin-1-yl)phenyl)-4-fluoro-1-oxoisoindolin-2-yl)-N-(thiazol-2-yl)acetamide] | 10 to 50 nM | A (0%≤substrate protein remaining %≤80%) | – | – | – | – | – | – | – | –
2 | O=C1CCN(N2C(=O)c3ccc(N4CC5CCC(C4)N5)cc3C2=O)C(=O)N1 [GT-05589, 5-(3,8-diazabicyclo[3.2.1]octan-3-yl)-2-(2,4-dioxotetrahydropyrimidin-1(2H)-yl)isoindoline-1,3-dione] | – | – | A (0%≤substrate protein remaining %≤80%) | B (80%<substrate protein remaining %≤100%) | B (80%<substrate protein remaining %≤100%) | B (80%<substrate protein remaining %≤100%) | B (80%<substrate protein remaining %≤100%) | B (80%<substrate protein remaining %≤100%) | – | –
3 | O=C1CCN(N2C(=O)c3ccc(N4CCC(N5CCNCC5)CC4)cc3C2=O)C(=O)N1 [GT-05594, 2-(2,4-dioxotetrahydropyrimidin-1(2H)-yl)-5-(4-(piperazin-1-yl)piperidin-1-yl)isoindoline-1,3-dione] | – | – | B (80%<substrate protein remaining %≤100%) | A (0%≤substrate protein remaining %≤80%) | B (80%<substrate protein remaining %≤100%) | B (80%<substrate protein remaining %≤100%) | A (0%≤substrate protein remaining %≤80%) | B (80%<substrate protein remaining %≤100%) | – | –
4 | O=C1CCN(N2C(=O)c3ccc(N4CCC(CN5C[C@H]6C[C@@H]5CN6c5ccc(-c6cc(F)c7c(c6)C(=O)N(C(C(=O)Nc6nccs6)c6ncn8c6CCC8)C7)cc5)CC4)cc3C2=O)C(=O)N1 (stereo partly drawn) [GT-06174, 2-(6,7-dihydro-5H-pyrrolo[1,2-c]imidazol-1-yl)-2-(6-(4-((1R,4R)-5-((1-(2-(2,4-dioxotetrahydropyrimidin-1(2H)-yl)-1,3-dioxoisoindolin-5-yl)piperidin-4-yl)methyl)-2,5-diazabicyclo[2.2.1]heptan-2-yl)phenyl)-4-fluoro-1-oxoisoindolin-2-yl)-N-(thiazol-2-yl)acetamide] | 10 to 50 nM | A (0%≤substrate protein remaining %≤80%) | – | – | – | – | – | – | – | –
5 | O=C1CCN(N2Cc3cc(CN4C[C@@H]5C[C@H]4CN5c4ccc(-c5cc(F)c6c(c5)C(=O)N(C(C(=O)Nc5nccs5)c5ncn7c5CCC7)C6)cc4)ccc3C2=O)C(=O)N1 (stereo partly drawn) [GT-05114, 2-(6,7-dihydro-5H-pyrrolo[1,2-c]imidazol-1-yl)-2-(6-(4-((1S,4S)-5-((2-(2,4-dioxotetrahydropyrimidin-1(2H)-yl)-1-oxoisoindolin-5-yl)methyl)-2,5-diazabicyclo[2.2.1]heptan-2-yl)phenyl)-4-fluoro-1-oxoisoindolin-2-yl)-N-(thiazol-2-yl)acetamide] | 100 to 130 nM | A (0%≤substrate protein remaining %≤80%) | – | – | – | – | – | – | a2 (20% < a2 ≤ 30%) | a5 (53% < a5 ≤ 60%)
6 | O=C1CCN(N2Cc3cc(CN4CCN(C5CCN(c6ccc(-c7cc(F)c8c(c7)C(=O)N(C(C(=O)Nc7nccs7)c7ncn9c7CCC9)C8)cc6)CC5)CC4)ccc3C2=O)C(=O)N1 (stereo not shown) [GT-06241, 2-(6,7-dihydro-5H-pyrrolo[1,2-c]imidazol-1-yl)-2-(6-(4-(4-(4-((2-(2,4-dioxotetrahydropyrimidin-1(2H)-yl)-1-oxoisoindolin-5-yl)methyl)piperazin-1-yl)piperidin-1-yl)phenyl)-4-fluoro-1-oxoisoindolin-2-yl)-N-(thiazol-2-yl)acetamide] | 10 to 50 nM | A (0%≤substrate protein remaining %≤80%) | – | – | – | – | – | – | a1 (10% < a1 ≤ 20%) | a5 (53% < a5 ≤ 60%)
7 | O=C1CCN(N2C(=O)c3cccc(N4CCC(CN5C[C@H]6C[C@@H]5CN6c5ccc(-c6cc(F)c7c(c6)C(=O)N(C(C(=O)Nc6nccs6)c6ncn8c6CCC8)C7)cc5)CC4)c3C2=O)C(=O)N1 (stereo partly drawn) [GT-06175, 2-(6,7-dihydro-5H-pyrrolo[1,2-c]imidazol-1-yl)-2-(6-(4-((1R,4R)-5-((1-(2-(2,4-dioxotetrahydropyrimidin-1(2H)-yl)-1,3-dioxoisoindolin-4-yl)piperidin-4-yl)methyl)-2,5-diazabicyclo[2.2.1]heptan-2-yl)phenyl)-4-fluoro-1-oxoisoindolin-2-yl)-N-(thiazol-2-yl)acetamide] | 10 to 50 nM | A (0%≤substrate protein remaining %≤80%) | – | – | – | – | – | – | – | –
8 | O=C1CCN(N2Cc3cc(CN4CCN(C5CCN(c6ccc(-c7cc(F)c8c(c7)C(=O)N(C(C(=O)Nc7nccs7)c7ncn9c7CCC9)C8)cc6)CC5(F)F)CC4)ccc3C2=O)C(=O)N1 (stereo not shown) [GT-06315, 2-(6,7-dihydro-5H-pyrrolo[1,2-c]imidazol-1-yl)-2-(6-(4-(4-(4-((2-(2,4-dioxotetrahydropyrimidin-1(2H)-yl)-1-oxoisoindolin-5-yl)methyl)piperazin-1-yl)-3,3-difluoropiperidin-1-yl)phenyl)-4-fluoro-1-oxoisoindolin-2-yl)-N-(thiazol-2-yl)acetamide] | < 10 nM | A (0%≤substrate protein remaining %≤80%) | – | – | – | – | – | – | – | –
